Entries after “also recorded” stand apart in the source; their conditions may differ.
Columns and labels:
Type in all cases: cell-based, human
[1] = tested on: p4EBP1; assay: IHC and image analysis of p4EBP1 under DFO-induced hypoxia; settings: Jurkat cells, 50 μM DFO overnight vs vehicle
Description: (§1) These markers were evaluated by immunohistochemistry (“IHC”) and image analysis in the presence of Desferrioxarnine (“DFO”)-induced hypoxia, as well as in its absence, or normoxia. DFO is an iron-chelating agent known to induce hypoxia, and was used in these experiments as a model for hypoxia. All IHC analyses were carried out on either the BenchMark XT® or Discovery XT® (Ventana Medical Systems, Inc., Tucson Ariz. (“VMSI”)) staining platforms. Primary antibodies were obtained from commercial sources (See Table 1). Controls were vehicle treated. […] Primary antibodies were detected using the DABMapTM, OmniMapTM (Discovery XT®), or iViewTM DAB (BenchMark XT®) detection kit according to the manufacturer's instructions. […] Detection Kit detected specific mouse IgG, IgM and rabbit IgG antibodies bound to an antigen in paraffin-embedded or frozen tissue section. […] Staining intensities, percentage of reactive cells, and cellular localization were recorded. […] Slides were reviewed and scored by the pathologist prior to quantitation by optical imaging. For optical imaging, a digital application (VMSI) with image quantification based on the intensity (expressed as average optical density, or avg. OD) of the stain converted to a numerical score was utilized. […]

[2] = tested on: pMEK; assay: IHC and image analysis of pMEK under DFO-induced hypoxia; settings: Jurkat cells, 50 μM DFO overnight vs vehicle
Description: as §1

[3] = tested on: pS6; assay: IHC and image analysis of pS6 under DFO-induced hypoxia; settings: Jurkat cells, 50 μM DFO overnight vs vehicle
Description: These markers were evaluated by immunohistochemistry (“IHC”) and image analysis in the presence of Desferrioxarnine (“DFO”)-induced hypoxia, as well as in its absence, or normoxia. DFO is an iron-chelating agent known to induce hypoxia, and was used in these experiments as a model for hypoxia. All IHC analyses were carried out on either the BenchMark XT® or Discovery XT® (Ventana Medical Systems, Inc., Tucson Ariz. (“VMSI”)) staining platforms. Primary antibodies were obtained from commercial sources (See Table 1). Controls were vehicle treated. […] Primary antibodies were detected using the DABMapTM, OmniMapTM (Discovery XT®), or iViewTM DAB (BenchMark XT®) detection kit according to the manufacturer's instructions. […] Detection Kit detected specific mouse IgG, IgM and rabbit IgG antibodies bound to an antigen in paraffin-embedded or frozen tissue section. […]

[4] = tested on: HIF-1α; assay: IHC and image analysis of HIF-1α in Jurkat cells under DFO-induced hypoxia; settings: 50 μM DFO overnight vs vehicle
Description: as §1

[5] = tested on: pmTOR; assay: IHC and image analysis of pmTOR under DFO-induced hypoxia; settings: Jurkat cells, 50 μM DFO overnight vs vehicle
Description: as §1

[6] = tested on: pAKT; assay: IHC and image analysis of pAKT under DFO-induced hypoxia; settings: Jurkat cells, 50 μM DFO overnight vs vehicle
Description: as §1

[7] = tested on: pTSC2; assay: IHC and image analysis of pTSC2 under DFO-induced hypoxia; settings: Jurkat cells, 50 μM DFO overnight vs vehicle
Description: as §1

[8] = tested on: mTOR; assay: IHC and image analysis of mTOR under DFO-induced hypoxia; settings: 50 μM DFO overnight vs vehicle; consistently high
Description: as §1

[9] = tested on: pERK (p44/p42); assay: IHC and image analysis of pERK (p44/p42) under DFO-induced hypoxia; settings: 50 μM DFO overnight vs vehicle; negative in Jurkat cells, positive in HT1080 cells
Description: as §1

[10] = tested on: HIF-1α; assay: IHC and image analysis of HIF-1α in HT1080 cells (DFO, PX-478 dose escalation); settings: DFO vs vehicle
[11] = tested on: HIF-1α; assay: FACS of hypoxia-induced HIF-1α expression in Jurkat tumor cell line; settings: after treatment with DFO
Description: FIG. 6 illustrates the fluorescence-activated cell sorting (FACS) results of hypoxia-induced HIF-1α expression in a Jurkat tumor cell line. IHC was conducted and assessed according to the procedures detailed in Example 1. Western Blotting and FACS analysis were conducted using standard conditions.

## CC(=O)N(O)CCCCCNC(=O)CCC(=O)N(O)CCCCCNC(=O)CCC(=O)N(O)CCCCCN [DFO, desferrioxamine]
[1]
  p4EBP1 expression (IHC): decrease in expression
[2]
  pMEK expression (IHC): decrease in expression
[3]
  pS6 expression (IHC): decrease in expression
[4]
  HIF-1α expression (IHC): increase in expression; also recorded: increased expression
[5]
  pmTOR expression (IHC): increase in expression
[6]
  pAKT level of expression or activation (IHC): no change
[7]
  pTSC2 level of expression or activation (IHC): no change
[8]
  level of mTOR (IHC): No change
[9]
  level of pERK (IHC): No change
[10]
  HIF-1α expression (IHC): increased expression
[11]
  HIF-1α (FACS): increase in HIF-1α
